# Counter-ions that a name gives are not always drawn.
# Molecular target: T1, Keap1 (321-609) Kelch domain / TAMRA-labeled NRF2 peptide (ETGE motif) (Homo sapiens, UniProt Q14145)
# T1 construct: the Kelch domain (321-609) of Keap1 is used
# Experiment: NRF2-Keap1 FP Assay
# Format: binding
# Details: Keap1 (321-609) 20 nM, Tamra labeled peptide 8 nM
# Text: One model for the NRF2-Keap1 interaction is through two binding sites in the Neh2 domain on NRF2. The two sites are referred to as the DLG binding motif (latch domain, uM affinity) and the ETGE binding motif (hinge domain, nM affinity). The Keap1 protein consists of an N-terminal region (NTR), a broad complex, tramtrack, and brick a' brac domain (BTB), an intervening region (IVR), a double glycine repeat domain (DGR or Kelch), and a C-terminal region. The DLG and ETGE motifs of NRF2's Neh2 domain bind to the Kelch domain of Keap1 at different affinities. In the Keap1 Kelch fluorescence polarization (FP) assay, a TAMRA-labeled 16mer peptide (AFFAQLQLDEETGEFL) containing the ETGE motif of NRF2 and the Kelch domain (321-609) of Keap1 is used. The assay determines if a compound interferes with the binding between Keap1 […] and the TAMRA-labeled peptide. Binding of TAMRA-labeled NRF2 peptide to Keap1 (321-609) results in a high FP signal. If a compound interferes with the binding between the peptide and the protein, it will cause the assay signal to decrease. Thus, assay signal is inversely proportional to binding inhibition.
# 100 nl of 100× compound dose response curves (serial 3-fold dilutions) in DMSO were stamped using an Echo liquid handling system (Labcyte) into 384-well low volume black assay plates (Greiner, #784076), with DMSO in columns 6 and 18. The top concentration of compound was located in columns 1 and 13. Keap1 (321-609) was diluted to 40 nM (2×) in 1× assay buffer (50 mM Tris, pH 8.0, 100 mM NaCl, 5 mM MgCl2, 1 mM DTT, 2 mM CHAPS, and 0.005% BSA) and 5 ul was added using a Multidrop Combi (Thermo Electron Corporation) equipped with a metal tip dispenser to all wells of the compound plate, except column 18. Column 18 received only 5 ul of assay buffer. Immediately, 5 uL of 16 nM (2×) of Tamra labeled peptide (AFFAQLQLDEETGEFL, 21st Century Biochemicals) was added to all wells of the plate. The plates were spun at 500 rpm for 1 min, incubated for 1 hr at room temperature, and read on an Analyst GT (Molecular Devices) equipped with excitation (530/25 nm) and emission (580/10 nm) filters designed for Tamra probes. A 561 nm dichroic mirror was also used in the Analyst. The final assay concentrations of Keap1l (321-609) and Tamra labeled peptide were 20 nM and 8 nM, respectively. Fluorescence measurements, represented as mP, were used in the transformation of the data. Compound activity was calculated based on percent inhibition, normalized against controls in the assay (Control 1 contains the Tamra peptide and Keap1 (321-609) together (0% response) and control 2 contains the Tamra peptide alone (100% response)). Data analysis was handled using the software package Abase XE (Surrey, United Kingdom. The % inhibition values were calculated by the equation:
# 100−(100*((compound response−average control 2)/(average control 1−average control2))).
# For calculation of pIC50s, Abase XE used a four parameter equation.
# IC50s<1 nM (+++++), IC50s 1 nM-10 nM (++++), IC50s 10-100 nM (+++), IC50s 100 nM-1 μM (++), IC50s 1-10 μM (+), IC50s>10 μM (−), or were not determined (ND).
# T1 sequence (Q14145 321-609): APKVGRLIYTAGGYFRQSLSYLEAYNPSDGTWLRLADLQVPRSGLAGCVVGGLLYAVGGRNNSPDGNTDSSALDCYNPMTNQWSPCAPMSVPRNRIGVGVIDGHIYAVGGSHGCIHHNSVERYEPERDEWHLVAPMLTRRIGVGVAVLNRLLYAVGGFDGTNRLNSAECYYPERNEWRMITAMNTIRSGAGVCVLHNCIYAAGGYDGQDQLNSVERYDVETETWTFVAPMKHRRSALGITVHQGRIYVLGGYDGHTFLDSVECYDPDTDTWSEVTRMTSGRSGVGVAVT
row,EC50,SMILES
1,0.1 to 1 µM,"CN(Cc1cccc(-n2ncc(C(=O)O)c2[C@@H]2C[C@H]2c2cn(C)nn2)c1)S(=O)(=O)c1ccccc1 (racemic) [Example 48, 5-((trans)-2-(1-methyl-1H-1,2,3-triazol-4-yl)cyclopropyl)-1-(3-((N-methylphenylsulfonamido)methyl)phenyl)-1H-pyrazole-4-carboxylic acid]"
2,0.1 to 1 µM,"CCCCCCN(Cc1cccc(-n2ncc(C(=O)O)c2[C@@H]2C[C@H]2c2cn(C)nn2)c1)S(=O)(=O)c1ccccc1Oc1ccccc1 (racemic) [Example 49, 1-(3-((N-hexyl-2-phenoxyphenylsulfonamido)methyl)phenyl)-5-((trans)-2-(1-methyl-1H-1,2,3-triazol-4-yl)cyclopropyl)-1H-pyrazole-4-carboxylic acid]"
3,0.1 to 1 µM,"CCCN(Cc1cccc(-n2ncc(C(=O)O)c2[C@@H]2C[C@H]2c2cn(C)nn2)c1)S(=O)(=O)c1ccccc1C (racemic) [Example 50, 5-((trans)-2-(1-methyl-1H-1,2,3-triazol-4-yl)cyclopropyl)-1-(3-((2-methyl-N-propylphenylsulfonamido)methyl)phenyl)-1H-pyrazole-4-carboxylic acid]"
4,0.1 to 1 µM,"CN(Cc1cccc(-n2ncc(C(=O)O)c2[C@@H]2C[C@H]2c2cn(C)nn2)c1)S(=O)(=O)c1cccc2cccnc12 (racemic) [Example 51, 5-((trans)-2-(1-methyl-1H-1,2,3-triazol-4-yl)cyclopropyl)-1-(3-((N-methylquinoline-8-sulfonamido)methyl)phenyl)-1H-pyrazole-4-carboxylic acid]"
5,0.1 to 1 µM,"COc1ccccc1S(=O)(=O)NCc1cccc(-n2ncc(C(=O)O)c2[C@@H]2C[C@H]2c2cn(C)nn2)c1 (racemic) [Example 52, 1-(3-((2-methoxyphenylsulfonamido)methyl)phenyl)-5-((trans)-2-(1-methyl-1H-1,2,3-triazol-4-yl)cyclopropyl)-1H-pyrazole-4-carboxylic acid]"
6,1 to 10 µM,"COc1ccccc1S(=O)(=O)N(Cc1cccc(-n2ncc(C(=O)O)c2[C@@H]2C[C@H]2c2cn(C)nn2)c1)C1CC1 (racemic) [Example 53, 1-(3-((N-cyclopropyl-2-methoxyphenylsulfonamido)methyl)phenyl)-5-((trans)-2-(1-methyl-1H-1,2,3-triazol-4-yl)cyclopropyl)-1H-pyrazole-4-carboxylic acid]"
7,0.1 to 1 µM,"CCOc1ccc(Br)cc1CN(C)Cc1cccc(-n2ncc(C(=O)O)c2[C@@H]2C[C@H]2c2cn(C)nn2)c1 (racemic) [Example 54, 1-(3-(((5-bromo-2-ethoxybenzyl)(methyl)amino)methyl)phenyl)-5-((trans)-2-(1-methyl-1H-1,2,3-triazol-4-yl)cyclopropyl)-1H-pyrazole-4-carboxylic acid trifluoroacetate]"
8,1 to 10 µM,CCCCCCN(Cc1cccc(-n2ncc(C(=O)O)c2[C@@H]2C[C@H]2c2cnn(C)c2)c1)S(=O)(=O)c1ccccc1C (racemic) [Example 56]
9,0.1 to 1 µM,"Cc1cc([C@@H]2C[C@H]2c2c(C(=O)O)cnn2-c2cccc(CN3C[C@@H](C)Cc4cc(C(F)(F)F)ccc4S3(=O)=O)c2)on1 (racemic) [Example 57, 1-(3-(((S)-4-Methyl-1,1-dioxido-7-(trifluoromethyl)-4,5-dihydrobenzo[f][1,2]thiazepin-2(3H)-yl)methyl)phenyl)-5-(trans-2-(3-methylisoxazol-5-yl)cyclopropyl)-1H-pyrazole-4-carboxylic acid]"
10,0.01 to 0.1 µM,"CCCCCCN(Cc1cccc(-n2ncc(C(=O)O)c2[C@@H]2C[C@H]2c2cn(C)nn2)c1)S(=O)(=O)c1ccc(Oc2ccccc2)cc1 (relative stereo) [Example 36, 1-(3-((N-hexyl-4-phenoxyphenylsulfonamido)methyl)phenyl)-5-((trans)-2-(1-methyl-1H-1,2,3-triazol-4-yl)-cyclopropyl)-1H-pyrazole-4-carboxylic acid]"
11,0.01 to 0.1 µM,"CN(Cc1cccc(-n2ncc(C(=O)O)c2[C@@H]2C[C@H]2c2cn(C)nn2)c1)S(=O)(=O)c1ccccc1Oc1ccccc1 (relative stereo) [Example 38, 5-((trans)-2-(1-methyl-1H-1,2,3-triazol-4-yl)cyclo-propyl)-1-(3-((N-methyl-2-phenoxyphenyl-sulfonamido)-methyl)phenyl)-1H-pyrazole-4-carboxylic acid]"
12,0.01 to 0.1 µM,"CN(Cc1cccc(-n2ncc(C(=O)O)c2[C@@H]2C[C@H]2c2cn(C)nn2)c1)S(=O)(=O)c1ccc(-c2ccccc2)cc1 (relative stereo) [Example 39, 5-((trans)-2-(1-methyl-1H-1,2,3-triazol-4-yl)cyclo-propyl)-1-(3-((N-methyl-[1,1′-biphenyl]-4-ylsulfonamido)-methyl)phenyl)-1H-pyrazole-4-carboxylic acid]"
13,0.001 to 0.01 µM,"CC(c1cccc(-n2ncc(C(=O)O)c2[C@@H]2C[C@H]2c2cn(C)nn2)c1)N1C[C@@H](C)Cc2ccc(C(F)(F)F)cc2S1(=O)=O (single isomer, unassigned) [Example 6, 1-(3-((R or S)-1-((S)-4-Methyl-1,1-dioxido-8-(trifluoromethyl)-4,5-dihydrobenzo[f][1,2]thiazepin-2(3H)-yl)ethyl)phenyl)-5-((1R,2R)-2-(1-methyl-1H-1,2,3-triazol-4-yl)cyclopropyl)-1H-pyrazole-4-carboxylic acid]"
14,0.001 to 0.01 µM,CC[C@@H]1CN(Cc2cccc(-n3ncc(C(=O)O)c3[C@@H]3C[C@H]3c3cn(C)nn3)c2)S(=O)(=O)c2ccccc2O1 [Example 3]
15,0.001 to 0.01 µM,CC[C@H]1Cc2ccccc2S(=O)(=O)N(Cc2cccc(-n3ncc(C(=O)O)c3[C@@H]3C[C@H]3c3cn(C)nn3)c2)C1 [Example 4]
16,0.01 to 0.1 µM,CC[C@@H]1Cc2ccccc2CN(Cc2cccc(-n3ncc(C(=O)O)c3[C@@H]3C[C@H]3c3cn(C)nn3)c2)C1 [Example 10]
17,0.01 to 0.1 µM,CC[C@H]1Cc2ccccc2CN(Cc2cccc(-n3ncc(C(=O)O)c3[C@@H]3C[C@H]3c3cn(C)nn3)c2)C1 [Example 11]
18,1 to 10 µM,CCC1c2ccccc2OC(C)(C)CN1Cc1cccc(-n2ncc(C(=O)O)c2[C@@H]2C[C@H]2c2cn(C)nn2)c1 (stereo partly drawn) [Example 12]
19,0.01 to 0.1 µM,"C[C@H]1Cc2ccccc2S(=O)(=O)N(Cc2cccc(-n3ncc(C(=O)O)c3[C@@H]3C[C@H]3c3cn(C)nn3)c2)C1 [Example 15, 1-(3-(((S)-4-methyl-1,1-dioxido-4,5-dihydrobenzo[f][1,2]thiazepin-2(3H)-yl)methyl)phenyl)-5-((trans)-2-(1-methyl-1H-1,2,3-triazol-4-yl)cyclopropyl)-1H-pyrazole-4-carboxylic acid]"
20,< 0.001 µM,"CC[C@H]1Cc2ccc(C(F)(F)F)cc2S(=O)(=O)N(Cc2cccc(-n3ncc(C(=O)O)c3[C@@H]3C[C@H]3c3cn(C)nn3)c2)C1 [Example 20, 1-(3-(((S)-4-ethyl-1,1-dioxido-8-(trifluoromethyl)-4,5-dihydrobenzo[f][1,2]thiazepin-2(3H)-yl)methyl)phenyl)-5-((1R,2R)-2-(1-methyl-1H-1,2,3-triazol-4-yl)cyclopropyl)-1H-pyrazole-4-carboxylic acid]"
21,< 0.001 µM,"CCCC[C@H]1Cc2ccc(C(F)(F)F)cc2S(=O)(=O)N(Cc2cccc(-n3ncc(C(=O)O)c3[C@@H]3C[C@H]3c3cn(C)nn3)c2)C1 [Example 21, 1-(3-(((S)-4-butyl-1,1-dioxido-8-(trifluoromethyl)-4,5-dihydrobenzo[f][1,2]thiazepin-2(3H)-yl)methyl)phenyl)-5-((1R,2R)-2-(1-methyl-1H-1,2,3-triazol-4-yl)cyclopropyl)-1H-pyrazole-4-carboxylic acid]"
